From patent publication EP1383510B1, “BISPHOSPHONATE CONJUGATES AND METHODS OF MAKING AND USING THE SAME” (priority 2001, dated 2002)

Tests used:
[1] = Binding of novel bisphosphonate conjugates on hydroxyapatite powder (UV spectra before/after treatment); settings: pH 7.0
Protocol: To estimate the binding of NBC on hydroxyapatite (the mineral component of bone) UV spectra of NBC at pH7 were recorded before and after treatment with hydroxyapatite. […] The supernatant was separated and an absorption spectrum of the supernatant was recorded.

[2] = Biodistribution in rats of vitamin B6 - bisphosphonate conjugates in complex with 99mTc; format: in vivo; settings: as complexing agent of the bone-scanning agent; general statement
Protocol: The probes were prepared with molar concentration of about 10^-3 molar at pH 6.5, with a molar ratio SnCl2 to a conjugate 1:10 and 1 m^cl/ml pertechnetate.
Male rats weighting […] were injected intravenously via the tail vein. The rats were sacrificed and dissected at selected times - 30 min., 60 min., and 120 min. The activity uptake in bone, blood, muscle, liver and spleen of each rat was measured. The results obtained indicate 40-45% of initial radioactivity injected was accumulated at bone skeleton after 60-90 min.

[3] = HPLC-analysis of stability of nucleotide-bisphosphonate conjugate in serum; format: in vitro ADME; settings: mouse/human serum; Fig.3
Protocol: (§1) HPLC-analysis of hydrolytic stability of conjugate VI, Fig. 2, in buffer and in human serum was carried out under the following conditions: column Nucleosil C-18 (30-C18), 0-4% triethylammonium acetate (0.1 M, pH6.8); 20 min, flow rate -1 ml/min. […] The stability of the conjugate was decreased in mouse/human serum as it is evidenced from data on Fig.3. However, the conjugate is stable enough to be delivered to a skeleton in intact form.

[4] = HPLC-analysis of hydrolytic stability of nucleotide-bisphosphonate conjugate in buffer; format: physicochemical
Protocol: as §1

Row | SMILES | % of bound compound [1] | % of nonbound compound [1] | uptake in bone [2] | stability of the conjugate in serum [3] | hydrolytic stability (stable for several hours) ([4]; buffer solution at pH 5-7, several hours) | hydrolytic stability of the P-O-P bond ([4]; incubation either at pH >8.0 or at pH<3.0)
1 | Cc1ncc(COP(=O)(O)O)c(CNCCC(O)(P(=O)(O)O)P(=O)(O)O)c1O [(i), 3 - (N-[5 '-phospho] -pyridoxylamino) -1-hydroxypropyliden-1,1-bisphosphonic acid] | 100% | 0% |  |  |  | 
2 | Cc1ncc(CO)c(CNCCC(O)(P(=O)(O)O)P(=O)(O)O)c1O [(ii), 3-(N-pyridoxylamino) -1-hydroxypropyliden-1,1-bisphosphonic acid] | 100% | 0% | high and rapid uptake in bone |  |  | 
3 | Cc1ncc(COP(=O)(O)O)c(CNC(P(=O)(O)O)P(=O)(O)O)c1O [(iii), 1 - (N-[5 '-phospho] -pyridoxylamino)-methylene-1,1-bisphosphonic acid] | 100% | 0% |  |  |  | 
4 | Cc1ncc(CO)c(CNC(P(=O)(O)O)P(=O)(O)O)c1O [(iv), 1 -(N-pyridoxyl amino) -methylen-1, 1 -bisphosphonic acid] | 100% | 0% |  |  |  | 

Second part, led by results:

Row | % of bound compound [1] | % of nonbound compound [1] | uptake in bone [2] | stability of the conjugate in serum [3] | hydrolytic stability (stable for several hours) ([4]; buffer solution at pH 5-7, several hours) | SMILES | hydrolytic stability of the P-O-P bond ([4]; incubation either at pH >8.0 or at pH<3.0)
5 | 87,26% | 12,74% |  |  |  | O=c1[nH]c(=O)n(COCCOCCOP(=O)(O)CP(=O)(O)O)cc1F [II, Anhydride of 1-([2-{hydroxyethoxy}ethoxy]methylene)-5-fluorouracil and methylenediphosphonic acid] | 
6 | 70,05% |  |  |  |  | O=c1[nH]c(=O)n(C2OC(COP(=O)(O)OP(=O)(O)CP(=O)(O)O)C(O)C2O)cc1F (stereo not shown) [III, Anhydride of 5-fluorouridine-5'-monophosphoric acid and methylenediphosphonic acid] | 
7 | 69,66% | 30,34% |  | decreased | more than 97% | CC(O)(P(=O)(O)O)P(=O)(O)OP(=O)(O)OCC1OC(n2cc(F)c(=O)[nH]c2=O)C(O)C1O (stereo not shown) [VI, Anhydride of 5-fluorouridine-5'-monophosphoric acid and 1-hydroxyethylidene-1,1-bisphosphonic acid] | Hydrolytic cleavage of the conjugate P-O-P bond occurred
8 | 88,68% | 11,32% |  |  |  | CC(O)(P(=O)(O)O)P(=O)(O)OP(=O)(O)OCC1OC(n2ccc(=O)[nH]c2=O)C(O)C1O (stereo not shown) [VII, Anhydride of uridine-5 '-monophosphoric acid and 1-hydroxyethylidene-1,1 diphosphonic acid] | 
